Data reported in the Kinase Knowledgebase extract (Sharma et al. 2016).

Target: PIK3CA (human) (UniProt P42336)
Experiment: Assessment of PIK3CA Kinase Activity

Sequence of PIK3CA (human) (P42336 whole entry, looked up): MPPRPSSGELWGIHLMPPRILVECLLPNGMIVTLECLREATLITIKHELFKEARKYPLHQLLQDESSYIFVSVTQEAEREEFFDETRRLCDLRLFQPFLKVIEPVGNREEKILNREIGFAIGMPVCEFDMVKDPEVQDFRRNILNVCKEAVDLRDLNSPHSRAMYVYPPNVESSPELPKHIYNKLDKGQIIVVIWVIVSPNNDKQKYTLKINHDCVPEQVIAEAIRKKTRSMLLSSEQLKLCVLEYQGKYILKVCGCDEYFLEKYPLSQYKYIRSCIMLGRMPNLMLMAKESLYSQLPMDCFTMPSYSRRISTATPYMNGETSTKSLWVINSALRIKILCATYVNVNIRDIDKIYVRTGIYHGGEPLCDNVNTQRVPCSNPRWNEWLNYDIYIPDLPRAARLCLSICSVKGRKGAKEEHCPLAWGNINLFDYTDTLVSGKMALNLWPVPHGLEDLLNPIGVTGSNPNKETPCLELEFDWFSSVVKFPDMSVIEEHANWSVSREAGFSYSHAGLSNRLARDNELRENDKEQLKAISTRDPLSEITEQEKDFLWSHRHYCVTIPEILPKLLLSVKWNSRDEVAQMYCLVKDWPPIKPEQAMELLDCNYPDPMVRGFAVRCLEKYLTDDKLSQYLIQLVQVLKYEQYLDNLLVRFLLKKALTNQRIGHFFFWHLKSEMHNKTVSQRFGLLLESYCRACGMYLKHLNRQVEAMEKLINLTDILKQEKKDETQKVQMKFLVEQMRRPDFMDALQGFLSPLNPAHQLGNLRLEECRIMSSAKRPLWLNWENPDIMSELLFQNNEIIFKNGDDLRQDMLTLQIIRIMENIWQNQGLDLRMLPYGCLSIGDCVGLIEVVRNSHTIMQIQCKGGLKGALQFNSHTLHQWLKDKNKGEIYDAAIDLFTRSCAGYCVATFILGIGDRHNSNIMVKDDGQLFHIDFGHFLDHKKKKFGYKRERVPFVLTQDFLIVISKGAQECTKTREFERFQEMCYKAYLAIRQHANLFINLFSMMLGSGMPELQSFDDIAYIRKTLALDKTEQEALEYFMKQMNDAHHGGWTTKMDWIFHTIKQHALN

Structure (SMILES)	IC50
Cc1nc(-c2cn3c(n2)-c2cnc(N4CCC[C@H]4C(N)=O)cc2OCC3)n(CC(F)(F)F)n1	< 1 µM
COc1ccc2c(c1)OCCn1cc(-c3nc(C)nn3C(C)C)nc1-2	< 1 µM
CC(C)C(Oc1ccc2c(c1)OCCn1cc(-c3ncnn3C(C)C)nc1-2)C(N)=O (stereo unspecified)	< 1 µM
CC(CO)Nc1cc2c(cn1)-c1nc(-c3ncnn3CC(F)(F)F)cn1CCO2 (stereo unspecified)	< 1 µM
CCOc1ccccc1-c1cn2c(n1)-c1ccc(C(=O)OC)cc1OCC2	< 1 µM
OCc1nc(-c2cn3c(n2)-c2cnc(N4CCCC4)cc2OCC3)n(CC(F)(F)F)n1	< 1 µM
Cc1nc(-c2cn3c(n2)-c2cnc(NCC(=O)O)cc2OCC3)n(C(C)C)n1	< 1 µM
NC(=O)[C@@H]1CCCN1c1cc2c(cn1)-c1nc(-c3ncnn3-c3ccc(F)cc3F)cn1CCO2	< 1 µM
CC(C)n1ncnc1-c1cn2c(n1)-c1ccc(N3CCC[C@@H]3C(N)=O)cc1OCC2	< 1 µM
CC(C)n1ncnc1-c1cn2c(n1)-c1cc(-c3cn[nH]c3)ccc1OCC2	< 1 µM
COCc1nc(-c2cn3c(n2)-c2ccc(C4CCN(CC(N)=O)CC4)cc2OCC3)n(C(C)C)n1	< 1 µM
CC(C)n1ncnc1-c1cn2c(n1)-c1cc(C(=O)N3CCS(=O)(=O)CC3)ccc1OCC2	< 1 µM
Cc1nc(-c2cn3c(n2)-c2ccc([C@@H]4CCNC[C@@H]4O)cc2OCC3)n(C(C)C)n1	< 1 µM
Cc1nc(-c2cn3c(n2)-c2ccc(-c4cn[nH]c4)cc2OCC3)n(C(C)C)n1	< 1 µM
Cc1nc(-c2cn3c(n2)-c2ccc(N4CCC[C@H]4C(N)=O)cc2OCC3)n(CC(F)(F)F)n1	< 1 µM
Cc1nc(-c2cn3c(n2)-c2ccc(C4CCN(CC(=O)N(C)C)CC4)cc2OCC3)n(C(C)C)n1	< 1 µM
Nc1nc(-c2cn3c(n2)-c2cc(-c4cncnc4)ccc2OCC3)n(-c2ccccc2Cl)n1	< 1 µM
CC(C)(CO)NC(=O)c1ccc2c(c1)-c1nc(-c3ncnn3-c3ccccc3Cl)cn1CCO2	< 1 µM
CC(C)n1nc(CN(C)C)nc1-c1cn2c(n1)-c1ccccc1OCC2	< 1 µM
Cc1nc(-c2ccc3c(c2)OCCn2cc(-c4ncnn4C(C)C)nc2-3)cn1CCOC1CCCCO1 (stereo unspecified)	< 1 µM
CC(C)n1ncnc1-c1cn2c(n1)-c1ccc(C3=CCN(C)CC3C(N)=O)cc1OCC2 (stereo unspecified)	< 1 µM
Cc1nc(-c2cn3c(n2)-c2ccc(N4CC[C@H]4C(N)=O)cc2OCC3)n(CC(F)(F)F)n1	< 1 µM
Cc1nc(-c2cn3c(n2)-c2cc(F)c(F)cc2OCC3)n(C(C)C)n1	< 1 µM
Cc1nc(-c2cn3c(n2)-c2ccc(C4CCN(CCO)CC4)cc2OCC3)n(C(C)C)n1	< 1 µM
NC(=O)[C@@H]1CCCN1c1ccc2c(c1)OCCn1cc(-c3ncnn3CC(F)(F)F)nc1-2	< 1 µM
Cc1ncc(-c2ccc3c(c2)OCCn2cc(-c4ncnn4C(C)C)nc2-3)n1CCO	< 1 µM

Structure (SMILES)	IC50
Cc1nc(-c2cn3c(n2)-c2ccc(-c4cnn(C5CN(CCO)C5)c4)cc2OCC3)n(C(C)C)n1	< 1 µM
Oc1ccc2c(c1)OCCn1cc(-c3ncnn3CC(F)(F)F)nc1-2	< 1 µM
NC(=O)CN1CCC(c2ccc3c(c2)-c2nn(-c4ncnn4-c4ccc(F)cc4F)cc2CCO3)CC1	< 1 µM
Cc1nc(-c2cn3c(n2)-c2cnc(N)cc2OCC3)n(CC(F)(F)F)n1	< 1 µM
COC(=O)C(C)Cn1cc(-c2ccc3c(c2)OCCn2cc(-c4nc(C)nn4C(C)C)nc2-3)cn1 (stereo unspecified)	< 1 µM
N#Cc1ccc2c(c1)OCCn1cc(-c3nc(N)nn3CC(F)(F)F)nc1-2	< 1 µM
CC(C)n1ncnc1-c1cn2c(n1)-c1cnc(N[C@@H](C)C(N)=O)cc1OCC2	< 1 µM
Cc1nc(-c2cn3c(n2)-c2cc(-c4cnn(C)c4)ccc2OCC3)n(C(C)C)n1	< 1 µM
Nc1nc(-c2cn3c(n2)-c2ccc(-c4ccc(Cl)cc4)cc2OCC3)n(-c2ccccc2Cl)n1	< 1 µM
Cc1nc(-c2cn3c(n2)-c2cc(-c4ccc(=O)[nH]c4)ccc2OCC3)n(C(C)C)n1	< 1 µM
CC(C)n1ncnc1-c1cn2c(n1)-c1cnc(N3CCN(CC(N)=O)CC3)cc1OCC2	< 1 µM
O=C(c1ccc2c(c1)-c1nc(-c3ncnn3CC(F)(F)F)cn1CCO2)N1CCOCC1	< 1 µM
O=C(Nc1cn[nH]c1)c1ccc2c(c1)-n1nc(-c3ncnn3CC(F)(F)F)cc1CCO2	< 1 µM
C[C@H](Oc1ccc2c(c1)OCCn1cc(-c3ncnn3C3CC3)nc1-2)C(N)=O	< 1 µM
CC(C)n1ncnc1-c1cn2c(n1)-c1cnc(N3CC[C@H](C)[C@H]3C(N)=O)cc1OCC2	< 1 µM
CC(C)n1ncnc1-c1cn2c(n1)-c1cnc(N3CCC(C)(C)[C@H]3C(N)=O)cc1OCC2	< 1 µM
CC(C)n1ncnc1-c1cn2c(n1)-c1ccc([C@@H]3C[C@H]4CC[C@@H](C3)N4CC(N)=O)cc1OCC2	< 1 µM
CC(C)n1ncnc1-c1cn2c(n1)-c1ccc(NCC3(N)COC3)cc1OCC2	< 1 µM
CC(C)n1ncnc1-c1cn2c(n1)-c1cc(N3CCN(C)CC3)ncc1OCC2	< 1 µM
CS(=O)(=O)CCNC(=O)c1ccc2c(c1)OCCn1cc(-c3ncnn3-c3ccccc3Cl)nc1-2	< 1 µM
Cc1nc(-c2cn3c(n2)-c2cnc(N4CCC[C@H]4C(N)=O)cc2OCC3)n(C(C)C)n1	< 1 µM
CNC(=O)c1ccc2c(c1)OCCn1cc(-c3ncnn3-c3ccc(F)cc3F)nc1-2	< 1 µM
CC(C)n1ncnc1-c1cn2c(n1)-c1ccc(C3CN(CCS(C)(=O)=O)C3)cc1OCC2	< 1 µM
CC(C)n1ncnc1-c1cn2c(n1)-c1ccc(C3=C(C(N)=O)CN(C)CC3)cc1OCC2	< 1 µM
Cc1nc(-c2cn3c(n2)-c2ccc(CNC(N)=O)cc2OCC3)n(-c2ccc(F)cc2F)n1	< 1 µM

Results, then the molecule that gave them:

IC50	Structure (SMILES)
< 1 µM	CC(C)n1ncnc1-c1cc2n(n1)-c1cc(C(=O)Nc3ccon3)ccc1OCC2
< 1 µM	CC(C)[C@H](Oc1ccc2c(c1)OCCn1cc(-c3ncnn3CC(F)(F)F)nc1-2)C(N)=O
< 1 µM	Cc1ccc2c(c1)-c1nc(-c3nc(C)nn3C(C)C)cn1CCO2
< 1 µM	CCOC(=O)C(C)Cn1cc(-c2ccc3c(c2)OCCn2cc(-c4nc(C)nn4C(C)C)nc2-3)cn1 (stereo unspecified)
< 1 µM	Cc1nc(-c2cn3c(n2)-c2ccc(N)cc2OCC3)n(C(C)C)n1
< 1 µM	CC(C)n1ncnc1-c1cn2c(n1)-c1ccc(-c3ccccc3C(N)=O)cc1OCC2
< 1 µM	CC(C)n1ncnc1-c1cn2c(n1)-c1cnc(N3CCC(O)CC3)cc1OCC2
< 1 µM	CNC(=O)[C@@H]1CCCN1c1cc2c(cn1)-c1nc(-c3ncnn3C(C)C)cn1CCO2
< 1 µM	CC(C)(Oc1ccc2c(c1)OCCn1cc(-c3ncnn3CC(F)(F)F)nc1-2)C(N)=O
< 1 µM	CC(C)n1ncnc1-c1cn2c(n1)-c1ccc(C3CN(CC(N)=O)C3)cc1OCC2
< 1 µM	Cc1nc(-c2cn3c(n2)-c2ccc(Br)cc2OCC3)n(C(C)C)n1
< 1 µM	Cc1nc(-c2cn3c(n2)-c2ccc(CN)cc2OCC3)n(-c2ccc(F)cc2F)n1
< 1 µM	CC(C)n1nc(N)nc1-c1cn2c(n1)-c1ccc(-c3cn(CCO)cn3)cc1OCC2
< 1 µM	CC(C)n1ncnc1-c1cn2c(n1)-c1ccc(OC3CC3)cc1OCC2
< 1 µM	CC(C)n1nccc1-c1cn2c(n1)-c1cc(C(N)=O)ccc1OCC2
< 1 µM	NC(=O)[C@@H]1CCCN1c1cc2c(cn1)-c1nc(-c3ncnn3C3CCCCC3)cn1CCO2
< 1 µM	CC(C)n1ncnc1-c1cn2c(n1)-c1ccc(OC(C(N)=O)C3CC3)cc1OCC2 (stereo unspecified)
< 1 µM	CC(=O)N1CC(c2ccc3c(c2)-n2nc(-c4ncnn4C(C)C)cc2CCO3)C1
< 1 µM	CC(C)n1ncnc1-c1cn2c(n1)-c1ccc(OCC(N)=O)cc1OCC2
< 1 µM	CC(C)C(Oc1cc2c(cn1)-c1nc(-c3ncnn3C(C)C)cn1CCO2)C(N)=O (stereo unspecified)
< 1 µM	CC(C)n1ncnc1-c1cn2c(n1)-c1cnc(OC(C)(C)C(N)=O)cc1OCC2
< 1 µM	CC(C)n1ncnc1-c1cn2c(n1)-c1cc(-c3ccc[nH]c3=O)ccc1OCC2
< 1 µM	CNC(=O)CN1CC(c2ccc3c(c2)OCCn2cc(-c4ncnn4C(C)C)nc2-3)C1

IC50	Structure (SMILES)
< 1 µM	Cc1nc(-c2cn3c(n2)-c2cnc(N4CCCC4C4CCCCN4C)cc2OCC3)n(CC(F)(F)F)n1 (stereo unspecified)
< 1 µM	CC(C)n1ncnc1-c1cn2c(n1)-c1cnc(N3C[C@@H](O)C[C@H]3C(N)=O)cc1OCC2
< 1 µM	Cc1nc(-c2cn3c(n2)-c2ccc(C#N)cc2OCC3)n(C(C)C)n1
< 1 µM	CC(C)n1ncnc1-c1cn2c(n1)-c1cnc(N3CC[C@@H](O)[C@H]3C(N)=O)cc1OCC2
< 1 µM	CC(C)n1ncnc1-c1cc2n(n1)-c1cc(CN3CCN(C(=O)CO)CC3)ccc1OCC2
< 1 µM	CC(C)(CO)NC(=O)c1ccc2c(c1)-c1nc(-c3ncnn3CC(F)(F)F)cn1CCO2
< 1 µM	CC(C)n1ncnc1-c1cn2c(n1)-c1ccc(C3CCN(CCO)CC3)cc1OCC2
< 1 µM	CC(C)n1ncnc1-c1cn2c(n1)-c1ccc(-c3ccccc3S(C)(=O)=O)cc1OCC2
< 1 µM	CC(C)n1ncnc1-c1cn2c(n1)-c1cnc(N(C)CC(N)=O)cc1OCC2
< 1 µM	CC(C)n1nc(C2CC2)nc1-c1cn2c(n1)-c1ccc(Br)cc1OCC2
< 1 µM	CC(C)NC(=O)CN1CCN(c2cc3c(cn2)-c2nc(-c4ncnn4C(C)C)cn2CCO3)CC1
< 1 µM	CC(C)n1nc(N)nc1-c1cn2c(n1)-c1ccccc1OCC2
< 1 µM	CC(C)n1ncnc1-c1cn2c(n1)-c1cnc(N3CCC(C(N)=O)CC3)cc1OCC2
< 1 µM	C[C@H](Oc1ccc2c(c1)OCCn1cc(-c3ncnn3CC(F)(F)F)nc1-2)C(N)=O
< 1 µM	CSc1nc(-c2cn3c(n2)-c2ccc(Br)cc2OCC3)n(C(C)C)n1
< 1 µM	Cc1ccc2c(c1)OCCn1cc(-c3nc(C)nn3C(C)C)nc1-2
< 1 µM	Cc1nc(-c2cn3c(n2)-c2ccc(OCC(F)(F)F)cc2OCC3)n(C(C)C)n1
< 1 µM	CC(C)N1CCN(C(=O)c2ccc3c(c2)-c2nc(-c4ncnn4-c4ccccc4Cl)cn2CCO3)CC1
< 1 µM	C[C@H](Nc1ccc2c(c1)OCCn1cc(-c3ncnn3CC(F)(F)F)nc1-2)C(N)=O
< 1 µM	CC(C)n1ncnc1-c1cn2c(n1)-c1ccc(=O)[nH]c1OCC2
< 1 µM	CC(C)n1ncnc1-c1cn2c(n1)-c1ccc(C3=NC(C)(C)CO3)cc1OCC2
< 1 µM	Nc1nc(-c2cn3c(n2)-c2cc(F)ccc2OCC3)n(CC(F)(F)F)n1
